# Columns and labels:
# [1] = Volume of distribution at steady state in iv or po dosed rat; type: ADME, organism-based; details: in vivo, read-out: Vdss
# [2] = biological target: PI3-kinase p110-alpha/p85-alpha (Homo sapiens, UniProt P42336); experiment: Inhibition of recombinant human His6-tagged PI3K p110alpha/p85alpha using DiC8-PIP2 as substrate preincubated for 15 mins followed by substrate addition measured after 60 mins by ADP-Glo assay; type: protein-complex assay
# [3] = system: Mus musculus; experiment: In vivo inhibition of PI3Kdelta in ovalbumin-sensitized OT-2 transgenic C57BL/6-Tg-(Tcratcrb)425Cbn/Crl mouse assessed as reduction in S6RP phosphorylation at Ser235/236 residues in bronchoalveolar lung lavage administered […] 18 hrs prior to anti-CD3 stimulation measured after 6 hrs; type: functional, organism-based
# [4] = Clearance in iv dosed rat; type: ADME, organism-based; details: in vivo
# [5] = biological target: PI3-kinase p110-delta/p85-alpha (Homo sapiens, UniProt O00329); experiment: Inhibition of recombinant human His6-tagged PI3K p110delta/p85alpha using DiC8-PIP2 as substrate preincubated for 15 mins followed by substrate addition measured after 60 mins by ADP-Glo assay; type: protein-complex assay
# Sequence of PI3-kinase p110-delta/p85-alpha (P27986 whole entry, one chain of several): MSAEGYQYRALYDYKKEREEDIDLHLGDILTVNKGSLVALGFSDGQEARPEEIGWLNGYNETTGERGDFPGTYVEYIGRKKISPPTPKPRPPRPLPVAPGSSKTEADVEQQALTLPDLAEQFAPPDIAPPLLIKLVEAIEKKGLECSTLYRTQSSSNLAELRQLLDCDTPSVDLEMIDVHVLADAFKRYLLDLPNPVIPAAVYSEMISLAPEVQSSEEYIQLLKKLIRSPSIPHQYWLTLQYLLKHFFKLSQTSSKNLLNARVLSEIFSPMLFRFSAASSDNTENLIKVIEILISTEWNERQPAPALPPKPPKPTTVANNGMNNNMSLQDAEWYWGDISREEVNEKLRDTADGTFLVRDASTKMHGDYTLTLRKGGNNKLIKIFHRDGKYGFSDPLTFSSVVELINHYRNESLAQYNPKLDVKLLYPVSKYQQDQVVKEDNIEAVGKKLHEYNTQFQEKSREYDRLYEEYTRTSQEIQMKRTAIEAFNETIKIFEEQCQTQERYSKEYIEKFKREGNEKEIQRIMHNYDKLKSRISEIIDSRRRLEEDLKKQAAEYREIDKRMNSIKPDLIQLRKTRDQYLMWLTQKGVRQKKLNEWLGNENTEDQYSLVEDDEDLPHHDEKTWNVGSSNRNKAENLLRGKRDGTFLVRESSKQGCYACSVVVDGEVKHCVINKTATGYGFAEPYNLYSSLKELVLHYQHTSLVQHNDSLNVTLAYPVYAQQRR
# [6] = Dissociation constant, acidic pKa of compound; type: physicochemical
# [7] = Metabolic stability in it dosed rat lungs assessed as compound remaining at 24 hrs post dose by LC-MS/MS analysis; type: ADME, organism-based; details: lung, inhaled or intranasal, read-out: Stability
# [8] = Terminal half life in it dosed rat lung by LC-MS/MS analysis; type: ADME, organism-based; details: inhaled or intranasal, read-out: beta t1/2 (converted)
# [9] = biological target: Phosphatidylinositol 4,5-bisphosphate 3-kinase catalytic subunit gamma isoform (Homo sapiens, UniProt P48736); experiment: Inhibition of recombinant human His6-tagged PI3Kgamma (144 to 1102 residues) using DiC8-PIP2 as substrate preincubated for 15 mins followed by substrate addition measured after 60 mins by ADP-Glo assay
# [10] = Lipophilicity, log D of the compound; type: physicochemical; details: octanol/water
# [11] = biological target: T1, Phosphatidylinositol 4,5-bisphosphate 3-kinase catalytic subunit delta isoform (Homo sapiens, UniProt O00329); experiment: Inhibition of PI3Kdelta in human JeKo1 cells assessed as reduction in Akt phosphorylation at Ser473 residue preincubated for 60 mins followed by Anti-IgM stimulation for 10 mins by TR-FRET assay; type: cell-based
# T1 sequence (O00329 whole entry): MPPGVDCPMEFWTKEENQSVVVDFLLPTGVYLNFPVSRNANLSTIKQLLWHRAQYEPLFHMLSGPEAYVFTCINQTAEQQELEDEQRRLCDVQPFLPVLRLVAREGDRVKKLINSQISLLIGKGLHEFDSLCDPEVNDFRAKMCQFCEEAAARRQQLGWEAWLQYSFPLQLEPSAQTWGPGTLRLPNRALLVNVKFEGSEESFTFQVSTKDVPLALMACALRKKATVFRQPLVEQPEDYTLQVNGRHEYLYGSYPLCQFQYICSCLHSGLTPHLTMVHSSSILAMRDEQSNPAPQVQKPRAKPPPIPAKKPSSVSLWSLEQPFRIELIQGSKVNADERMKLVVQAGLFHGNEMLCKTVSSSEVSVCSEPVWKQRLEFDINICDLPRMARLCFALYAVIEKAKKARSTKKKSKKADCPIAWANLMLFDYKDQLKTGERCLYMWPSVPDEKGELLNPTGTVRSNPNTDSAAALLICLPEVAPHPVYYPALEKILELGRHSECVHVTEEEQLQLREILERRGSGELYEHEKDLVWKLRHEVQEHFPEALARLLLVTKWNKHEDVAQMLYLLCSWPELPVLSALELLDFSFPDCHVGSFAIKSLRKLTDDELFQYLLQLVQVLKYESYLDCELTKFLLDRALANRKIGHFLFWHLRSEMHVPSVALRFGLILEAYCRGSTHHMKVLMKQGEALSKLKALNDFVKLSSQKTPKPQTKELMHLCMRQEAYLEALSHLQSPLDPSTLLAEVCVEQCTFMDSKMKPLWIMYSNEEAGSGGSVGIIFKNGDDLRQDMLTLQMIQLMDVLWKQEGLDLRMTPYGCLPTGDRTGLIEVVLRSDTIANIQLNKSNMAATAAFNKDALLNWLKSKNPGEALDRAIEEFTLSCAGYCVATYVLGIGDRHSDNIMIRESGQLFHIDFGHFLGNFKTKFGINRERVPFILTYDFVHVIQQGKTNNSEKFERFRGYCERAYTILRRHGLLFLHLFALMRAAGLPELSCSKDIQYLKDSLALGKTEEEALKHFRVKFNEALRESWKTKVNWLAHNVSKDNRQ
# [12] = Dissociation constant, basic pKa of compound; type: physicochemical
# [13] = Half life in iv or po dosed rat; type: ADME, organism-based; details: in vivo
# [14] = biological target: hERG (KCNH2) (Homo sapiens, UniProt Q12809); experiment: Inhibition of human ERG at 11 uM relative to control
# Sequence of hERG (KCNH2) (Q12809 whole entry): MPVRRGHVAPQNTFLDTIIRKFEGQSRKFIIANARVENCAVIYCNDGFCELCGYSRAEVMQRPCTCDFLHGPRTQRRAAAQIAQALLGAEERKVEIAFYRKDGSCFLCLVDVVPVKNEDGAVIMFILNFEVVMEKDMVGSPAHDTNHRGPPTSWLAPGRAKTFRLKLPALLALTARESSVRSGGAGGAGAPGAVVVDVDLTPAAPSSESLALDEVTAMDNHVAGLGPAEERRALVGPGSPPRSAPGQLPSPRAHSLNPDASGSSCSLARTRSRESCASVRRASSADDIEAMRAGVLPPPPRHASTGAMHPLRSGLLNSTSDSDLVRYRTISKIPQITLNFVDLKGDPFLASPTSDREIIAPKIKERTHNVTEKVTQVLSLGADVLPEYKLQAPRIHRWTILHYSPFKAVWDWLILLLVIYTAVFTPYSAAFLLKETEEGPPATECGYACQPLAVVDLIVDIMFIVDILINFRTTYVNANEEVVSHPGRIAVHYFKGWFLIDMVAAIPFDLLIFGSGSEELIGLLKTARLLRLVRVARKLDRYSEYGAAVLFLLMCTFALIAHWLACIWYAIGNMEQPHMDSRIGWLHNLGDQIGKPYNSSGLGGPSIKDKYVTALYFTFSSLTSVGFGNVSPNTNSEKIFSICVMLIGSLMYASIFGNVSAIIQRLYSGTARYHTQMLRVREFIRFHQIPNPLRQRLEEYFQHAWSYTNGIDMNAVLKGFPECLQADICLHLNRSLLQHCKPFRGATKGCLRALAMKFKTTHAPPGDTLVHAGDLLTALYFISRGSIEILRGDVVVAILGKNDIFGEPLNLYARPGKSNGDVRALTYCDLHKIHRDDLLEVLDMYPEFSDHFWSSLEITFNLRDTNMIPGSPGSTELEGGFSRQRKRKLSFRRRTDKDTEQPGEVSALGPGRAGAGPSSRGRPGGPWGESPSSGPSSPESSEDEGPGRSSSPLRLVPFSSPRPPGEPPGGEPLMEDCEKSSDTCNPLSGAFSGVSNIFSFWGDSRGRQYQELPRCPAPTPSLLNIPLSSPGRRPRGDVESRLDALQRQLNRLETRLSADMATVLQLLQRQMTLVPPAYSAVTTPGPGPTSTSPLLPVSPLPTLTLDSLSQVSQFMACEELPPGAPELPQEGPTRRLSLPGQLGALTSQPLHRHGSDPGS
# [15] = Oral bioavailability in rat; type: ADME, organism-based; details: in vivo
# [16] = biological target: PI3K p110 beta/p85 alpha (Homo sapiens, UniProt P42338); experiment: Inhibition of recombinant human His6-tagged PI3K p110beta/p85alpha using DiC8-PIP2 as substrate preincubated for 15 mins followed by substrate addition measured after 60 mins by ADP-Glo assay; type: protein-complex assay
# Sequence of PI3K p110 beta/p85 alpha (P27986 whole entry): as the sequence (P27986 whole entry, one chain of several) above
# Sequence of PI3K p110 beta/p85 alpha (P42338 whole entry): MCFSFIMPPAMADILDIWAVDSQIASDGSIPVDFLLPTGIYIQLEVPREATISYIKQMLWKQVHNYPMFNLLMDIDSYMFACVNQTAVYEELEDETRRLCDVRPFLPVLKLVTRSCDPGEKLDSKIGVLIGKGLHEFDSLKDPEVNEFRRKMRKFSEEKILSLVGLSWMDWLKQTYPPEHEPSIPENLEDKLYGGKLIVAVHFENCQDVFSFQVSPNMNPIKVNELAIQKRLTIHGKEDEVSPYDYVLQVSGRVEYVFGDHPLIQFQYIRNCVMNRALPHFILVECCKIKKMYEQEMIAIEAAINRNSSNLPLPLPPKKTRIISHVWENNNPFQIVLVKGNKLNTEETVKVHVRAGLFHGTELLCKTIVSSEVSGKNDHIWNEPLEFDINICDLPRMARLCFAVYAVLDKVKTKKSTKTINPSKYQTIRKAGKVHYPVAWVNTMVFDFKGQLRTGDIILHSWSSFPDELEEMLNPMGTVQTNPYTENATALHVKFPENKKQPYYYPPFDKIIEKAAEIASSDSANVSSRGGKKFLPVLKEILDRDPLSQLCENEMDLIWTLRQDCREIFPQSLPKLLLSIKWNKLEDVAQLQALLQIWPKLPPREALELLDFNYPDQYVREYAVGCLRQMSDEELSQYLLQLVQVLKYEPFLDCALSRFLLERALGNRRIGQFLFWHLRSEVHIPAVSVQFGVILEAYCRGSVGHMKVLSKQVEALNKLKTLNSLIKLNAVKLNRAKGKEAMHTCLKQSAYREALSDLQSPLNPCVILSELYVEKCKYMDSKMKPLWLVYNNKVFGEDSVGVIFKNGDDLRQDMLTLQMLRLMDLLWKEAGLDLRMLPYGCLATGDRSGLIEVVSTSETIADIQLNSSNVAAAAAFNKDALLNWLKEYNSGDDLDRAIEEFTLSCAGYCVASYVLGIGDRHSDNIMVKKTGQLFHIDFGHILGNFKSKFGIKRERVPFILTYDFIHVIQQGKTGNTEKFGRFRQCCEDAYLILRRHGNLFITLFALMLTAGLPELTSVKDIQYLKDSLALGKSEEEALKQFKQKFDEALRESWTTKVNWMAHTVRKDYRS
# Sequence of PI3-kinase p110-alpha/p85-alpha (P27986 whole entry): as the sequence (P27986 whole entry, one chain of several) above
# Sequence of PI3-kinase p110-alpha/p85-alpha (P42336 whole entry): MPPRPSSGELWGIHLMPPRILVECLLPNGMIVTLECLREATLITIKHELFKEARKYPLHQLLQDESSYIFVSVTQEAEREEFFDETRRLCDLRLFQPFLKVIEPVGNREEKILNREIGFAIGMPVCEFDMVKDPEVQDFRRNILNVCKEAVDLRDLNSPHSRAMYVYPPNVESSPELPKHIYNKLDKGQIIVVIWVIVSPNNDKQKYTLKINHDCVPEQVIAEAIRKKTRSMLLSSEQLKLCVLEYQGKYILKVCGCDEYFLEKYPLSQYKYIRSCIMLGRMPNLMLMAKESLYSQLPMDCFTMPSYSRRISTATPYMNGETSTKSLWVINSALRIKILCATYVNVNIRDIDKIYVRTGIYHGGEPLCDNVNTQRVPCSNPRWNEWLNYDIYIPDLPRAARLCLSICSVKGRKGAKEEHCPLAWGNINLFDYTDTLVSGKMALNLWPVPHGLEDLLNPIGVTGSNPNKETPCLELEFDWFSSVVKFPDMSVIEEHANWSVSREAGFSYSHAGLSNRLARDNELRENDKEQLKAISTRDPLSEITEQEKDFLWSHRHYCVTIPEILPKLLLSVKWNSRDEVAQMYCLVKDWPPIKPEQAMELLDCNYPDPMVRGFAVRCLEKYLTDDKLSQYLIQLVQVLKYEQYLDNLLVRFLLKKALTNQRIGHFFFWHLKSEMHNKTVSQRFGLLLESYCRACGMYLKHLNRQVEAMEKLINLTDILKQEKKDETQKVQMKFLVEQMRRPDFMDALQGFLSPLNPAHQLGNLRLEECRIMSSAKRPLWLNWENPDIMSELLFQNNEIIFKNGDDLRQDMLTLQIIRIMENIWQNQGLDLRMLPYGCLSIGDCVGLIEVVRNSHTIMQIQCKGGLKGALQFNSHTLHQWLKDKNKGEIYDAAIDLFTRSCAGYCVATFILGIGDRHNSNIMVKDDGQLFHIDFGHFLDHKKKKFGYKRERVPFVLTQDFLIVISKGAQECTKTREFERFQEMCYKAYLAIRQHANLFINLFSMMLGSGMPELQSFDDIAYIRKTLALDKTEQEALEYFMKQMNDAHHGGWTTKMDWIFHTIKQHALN
Vd [1],IC50 [2],clearance [4],IC50 [5],pKa [6],remaining at 24 h [7],half-life [8],IC50 [9],logD [10],IC50 [11],pKa [12],half-life [13],bioavailability [15],IC50 [16],SMILES,inhibition [3],inhibition at 11 µM [14]
12 L/kg,≥ 631 nM,57 mL/min/kg,0.501 nM,9.5,4.8%,23.2 h,≥ 200 nM,0.5,10 nM,6.5,12 h,< 1%,63.1 nM,Cc1csc2cc([C@H](C)Nc3ncnc(N)c3C#N)c(-c3cccc(CN4CCC(N(C)C)CC4)c3)c(=O)n12,Dose-dependent effect,< 20%
88 L/kg,≥ 631 nM,150 mL/min/kg,0.631 nM,9.7,2.8%,9.9 h,≥ 200 nM,1.7,1.26 nM,6.8,11 h,< 1%,79.4 nM,Cc1csc2cc([C@H](C)Nc3ncnc(N)c3C#N)c(-c3cccc(CN4CCC(N(C)CC(C)C)CC4)c3)c(=O)n12,Dose-dependent effect,< 20%
